Values after ≈ are worked out from the molar mass of the structure shown.

Data set [1] is described as follows: Drug transport across human Caco-2 cells. It is filed as in vitro ADME. Particulars: pH 7.2, 37° C.; for Papp A→B at 10 µM: apical-to-basal, read-out: PEAB; for Papp B→A at 10 µM: basal-to-apical, read-out: PEBA. The source says: Assay for Determination of Drug Transport Across Human Caco-2 Cells
The assay provides information on the potential of a compound to pass the cell membrane, on the extent of oral absorption as well as on whether the compound is actively transported by uptake and/or efflux transporters. For the measurement of permeability across polarized, confluent human cancer colon carcinoma cells 2 (Caco-2) cell monolayers grown on permeable filter supports are used as the in vitro absorption model.
Apparent permeability coefficients (PE) of the compounds across the Caco-2 monolayers are measured (pH 7.2, 37° C.) in apical-to-basal (AB) (absorptive) and basal-to-apical (BA) (secretory) transport direction. AB permeability (PEAB) represents drug absorption from the intestine into the blood and BA permeability (PEBA) drug secretion from the blood back into the intestine via both passive permeability as well as active transport mechanisms mediated by efflux and uptake transporters that are expressed on the Caco-2 cells. The compounds are assigned to permeability/absorption classes by comparison of the AB permeabilities with the AB permeabilities of reference compounds with known in vitro permeability and oral absorption in the human. Identical or similar permeabilities in both transport directions indicate passive permeation, vectorial permeability points to additional active transport mechanisms. […] Active transport is concentration-dependently saturable.
Caco-2 cells (1-2*10^5 cells/cm^2 area) are seeded on filter inserts (Costar transwell polycarbonate or PET filters, 0.4 μm pore size) and cultured (DMEM) for 10 to 25 days. Compounds are dissolved in appropriate solvent (like DMSO, 1-20 min stock solutions). Stock solutions are diluted with HTP-4 buffer (128.13 min NaCl, 5.36 min KCl, 1 mM MgSO4, 1.8 min CaCl2, 4.17 min NaHCO3, 1.19 min Na2HPO4×7H2O, 0.41 mM NaH2PO4×H2O, 15 min HEPES, 20 min glucose, pH 7.2) to prepare the transport solutions (typically 10 μM compound, final DMSO<=0.5%). The transport solution (TL) is applied to the apical or basolateral donor side for measuring A-B or B-A permeability (3 filter replicates), respectively. The receiver side contains HTP-4 buffer supplemented with 2% BSA. Samples are collected at the start and end of experiment from the donor and at various time intervals for up to 2 hours also from the receiver side for concentration measurement by LC-MS/MS or scintillation counting. Sampled receiver volumes are replaced with fresh receiver solution.
(In general: Caco-2 monolayers are a common model of the intestinal barrier.)

The target of data set [2] is T1, neutrophil elastase in human plasma (Homo sapiens, UniProt P08246).
T1 construct: The stimulated blood is centrifuged to generate the neutrophil elastase enriched plasma; from tissue; host or cells: plasma from zymosan-stimulated citrated whole blood of healthy human donors
T1 sequence (P08246 30-267): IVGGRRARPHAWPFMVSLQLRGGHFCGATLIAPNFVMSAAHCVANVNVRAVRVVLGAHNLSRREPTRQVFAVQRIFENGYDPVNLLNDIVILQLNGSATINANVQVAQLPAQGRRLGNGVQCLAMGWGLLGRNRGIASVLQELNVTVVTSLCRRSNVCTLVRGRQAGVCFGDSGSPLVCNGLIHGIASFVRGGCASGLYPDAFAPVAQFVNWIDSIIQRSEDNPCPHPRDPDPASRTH
As to the kind of experiment: Neutrophil elastase inhibitory activity in human plasma. Particulars: zymosan-stimulated human plasma, substrate MeOSuc-Ala-Ala-Pro-Val-AMC 250 μM. It is filed as biochemical. The protocol: Assay for the Determination of Neutrophil Elastase Inhibitory Activity in Human Plasma
Citrated blood from human healthy donors is mixed with zymosan suspension and incubated at room temperature. This leads to the stimulation of neutrophils and the release of neutrophil elastase into the plasma. The stimulated blood is centrifuged to generate the neutrophil elastase enriched plasma.
• A single 45 ml blood sample is taken into a 50 ml tube containing citrate (3.13%, 5 mL) and the tube is gently inverted 4 times. • Immediately after blood sampling, zymosan working solution (5 mL) is added. • After the addition of zymosan working solution, the tubes are capped, mixed gently and incubated at 22° C. for 15 min on a shaker at 20 rpm. • Make 10 ml aliquots after the incubation time. • Centrifuge the 15 ml tubes at 800 g for 15 min at 4° C. in a Jouan centrifuge. • Harvest the plasma and make 1-5 ml aliquots. • Store the plasma at −80° C.
A dose response curve is generated to calculate the EC50 of the inhibitor. The analysis of the data is performed by the calculation of the percentage of fluorescence in the presence of the test compound compared to the fluorescence of the vehicle control after subtracting the background fluorescence: An inhibitor of the neutrophil elastase enzyme will give values between 100% control (no inhibition) and 0% control (complete inhibition).

Data set [3] addresses T2, Human neutrophil elastase (Homo sapiens, UniProt P08246).
T2 construct: purchased Calbiochem 324681
T2 sequence (P08246 30-247 limits assumed): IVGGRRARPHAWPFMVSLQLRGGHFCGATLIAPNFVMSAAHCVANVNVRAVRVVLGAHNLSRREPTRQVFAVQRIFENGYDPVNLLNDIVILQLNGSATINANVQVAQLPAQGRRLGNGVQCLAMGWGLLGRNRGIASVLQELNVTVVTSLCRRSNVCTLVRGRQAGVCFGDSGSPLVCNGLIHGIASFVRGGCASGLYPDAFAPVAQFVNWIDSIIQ
In words: Human Neutrophil Elastase Assay. Conditions: substrate MeOSuc-Ala-Ala-Pro-Val-AMC 250 μM, pH 7.5, room temperature. The format is biochemical. The source says:
Human Neutrophil Elastase Assay

The nature of data set [4]: Metabolic stability with human liver microsomes. It is filed as in vitro ADME. Particulars: pooled human liver microsomes, pH 7.6; human liver microsomes 1 mg/ml, 1 μM compound, 37° C., NADPH; read-out: t1/2 INVITRO. A general note: Liver microsomes are a subcellular fraction often used to study metabolism.
Data set [5] is described as follows: Aqueous solubility. The format is physicochemical. Conditions: McIlvaine buffer pH 6.8 containing 2.5% DMSO, kinetic from dmso stock, McIlvaine buffer pH 6.8, 2.5% DMSO, 24 h shaking. The protocol: Assay for Determination of Aqueous Solubility
Starting from a 10 min DMSO stock solution, aliquots are diluted with acetonitrile/water (1/1) and McIlvaine buffer pH 6.8, respectively. After 24 h of shaking, the solutions or suspensions are filtered and analyzed by LC-UV. The amount dissolved in buffer is compared to the amount dissolved in the acetonitrile/water (1/1) solution. Solubility is measured from 0.001 to 0.125 mg/ml at a DMSO concentration of 2.5%. If more than 90% of the compound is dissolved in buffer, the value is marked with “>”.

Broadly, the EC50 is the concentration needed to bring the measured effect to its halfway point. A higher EC50 goes with lower potency in that assay. By IC50 is commonly meant the concentration needed to halve the response being measured. Low readings indicate inhibition by little substance, high ones a need for much substance. As usually defined, the solubility is the dissolved amount per volume that the medium holds. High values mean a readily soluble substance, low ones a poorly soluble substance. Regarding `CS(=O)(=O)c1cc(C#N)ccc1C1C2=C(CCCC2=O)N(c2cccc(C(F)(F)F)c2)C(=O)N1CCO` (stereo not drawn) [Example 6, 4-[3-(2-Hydroxy-ethyl)-2,5-dioxo-1-(3-trifluoromethyl-phenyl)-1,2,3,4,5,6,7,8-octahydro-quinazolin-4-yl]-3-methanesulfonyl-benzonitrile], in data set [1], the Papp A→B at 10 µM worked out at 3.9 ×10⁻⁶ cm/s and the Papp B→A at 10 µM amounted to 68 ×10⁻⁶ cm/s. The compound further displayed an EC50 in data set [2] of 1 nM. In data set [3], this compound yielded an IC50 of less than 1 nM. Also, the half-life at 1 μM in data set [4] was greater than 2.17 h. In data set [5], the solubility at 24 h is 72 µg/mL (≈ 135 µM).
`CN1C(=O)N(c2cccc(C(F)(F)F)c2)C2=C(C(=O)CCC2)C1c1ccc(C#N)cc1[S+](C)[O-]` (single isomer, unassigned) [Example 2.1A, 3-Methanesulfinyl-4-[3-methyl-2,5-dioxo-1-(3-trifluoromethyl-phenyl)-1,2,3,4,5,6,7,8-octahydro-quinazolin-4-yl]-benzonitrile]: in data set [1], the Papp A→B at 10 µM was 4.1 ×10⁻⁶ cm/s and the Papp B→A at 10 µM amounted to 58 ×10⁻⁶ cm/s. Also, the EC50 in data set [2] was less than 1 nM. Further, the IC50 in data set [3] is less than 1 nM. In addition, the half-life at 1 μM in data set [4] is 0.967 h. The compound also showed a solubility at 24 h in data set [5] of 65 µg/mL (≈ 133 µM).
For the compound `CN1C(=O)N(c2cccc(C(F)(F)F)c2)C2=C(C(=O)CCC2)C1c1ccc(C#N)cc1S(=O)(=O)CCO` (stereo not drawn) [Example 4.3], in data set [1], the Papp A→B at 10 µM came out at 10 ×10⁻⁶ cm/s and the Papp B→A at 10 µM is 120 ×10⁻⁶ cm/s. Also, in data set [2], the EC50 was 2 nM. This compound gave an IC50 in data set [3] of 1.1 nM. The half-life at 1 μM in data set [4] worked out at 2.17 h. The compound also came in with a solubility at 24 h in data set [5] of 62 µg/mL (≈ 116 µM).

(Values after US9440930B2, “Substituted bicyclic dihydropyrimidinones and their use as inhibitors of neutrophil elastase activity” (Boehringer Ingelheim International GmbH, priority 2014, dated 2016).)
